Drawing on US20240000767A1, “COMBINATION OF AN ALPHA2-ADRENOCEPTOR SUBTYPE C (ALPHA-2C) ANTAGONIST WITH A TASK1/3 CHANNEL BLOCKER FOR THE TREATMENT OF SLEEP APNEA” (Bayer Aktiengesellschaft, priority 2020, published 2024), this text covers IC50 for 42 compounds.

pIC50: −log10 of the molar value.

Sequence of human ADRA2C receptor (P18825 whole entry): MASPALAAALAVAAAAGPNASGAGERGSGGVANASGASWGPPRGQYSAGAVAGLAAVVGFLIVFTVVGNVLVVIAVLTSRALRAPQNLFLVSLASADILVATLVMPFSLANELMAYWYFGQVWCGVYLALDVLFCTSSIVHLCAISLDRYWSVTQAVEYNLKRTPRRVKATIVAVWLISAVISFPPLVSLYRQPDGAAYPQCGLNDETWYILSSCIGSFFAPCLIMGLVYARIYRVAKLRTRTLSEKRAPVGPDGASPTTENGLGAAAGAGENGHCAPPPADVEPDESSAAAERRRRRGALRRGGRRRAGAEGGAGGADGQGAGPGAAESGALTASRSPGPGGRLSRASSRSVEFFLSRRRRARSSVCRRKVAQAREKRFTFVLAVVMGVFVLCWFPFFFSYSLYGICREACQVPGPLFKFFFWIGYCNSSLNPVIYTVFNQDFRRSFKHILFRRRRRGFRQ

For the assay, the target named is human ADRA2C receptor (Homo sapiens (Human), UniProt P18825). Kind of assay: In vitro activity assay to determine the inhibition of recombinant ADRA2C (CHO-K1 cells, aequorin bioluminescence). Format: cell-based. To be noted: inhibition of noradrenaline-induced bioluminescence signal; some mean values from multiple determinations; read-out: ARα2C IC50. The method in brief:
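IC50 is the concentration halving the agonist (noradrenaline)-evoked rise in aequorin luminescence, fitted by 4-parameter Hill function. Read in stable Gαq/aequorin CHO-K1 cells expressing recombinant human ADRA2C.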
The term pIC50 denotes the IC50 on a negative log10 scale, so that one unit is a factor of ten. Turning to `Cc1ccccc1CNC(=O)c1cnc(N2CCC(N3CCC[C@@H](C)C3)CC2)s1` [Example 37, N-(2-methylbenzyl)-2-[(3R)-3-methyl[1,4′-bipiperidin]-1′-yl]-1,3-thiazole-5-carboxamide], the pIC50 was 6.70. Take `O=C(NCc1ncc(F)cc1F)c1cnc(N2CCC(N3CCC[C@H](C(F)F)C3)CC2)s1` [Example 38, 2-[(3S)-3-(Difluoromethyl)[1,4′-bipiperidin]-1′-yl]-N-[(3,5-difluoropyridin-2-yl)methyl]-1,3-thiazole-5-carboxamide]: the pIC50 was 5.63. In the case of `O=C(NCc1ncc(F)cc1F)c1cnc(N2CCC(N3CCC[C@@H](C(F)F)C3)CC2)s1` [Example 39, 2-[(3R)-3-(Difluoromethyl)[1,4′-bipiperidin]-1′-yl]-N-[(3,5-difluoropyridin-2-yl)methyl]-1,3-thiazole-5-carboxamide], the negative-log IC50 (pIC50) was 6.87. For `O=C(NCc1ncc(F)cc1F)c1cnc(N2CCC(N3CCC[C@@H](CF)C3)CC2)s1` [Example 41, N-[(3,5-Difluoropyridin-2-yl)methyl]-2-[(3R)-3-(fluoromethyl)[1,4′-bipiperidin]-1′-yl]-1,3-thiazole-5-carboxamide], the negative-log IC50 (pIC50) is 6.61. In the case of `O=C(NCc1ncc(F)cc1F)c1cnc(N2CCC(N3CCC[C@@H](C(F)(F)F)C3)CC2)s1` [Example 43, N-[(3,5-Difluoropyridin-2-yl)methyl]-2-[(3R)-3-(trifluoromethyl)[1,4′-bipiperidin]-1′-yl]-1,3-thiazole-5-carboxamide] it was 7.59; in that of `O=C(NCc1ncc(F)cc1F)c1cnc(N2CCC(N3CCC[C@@H](OCC4CC(F)(F)C4)C3)CC2)s1` [Example 44, 2-{(3R)-3-[(3,3-Difluorocyclobutyl)methoxy][1,4′-bipiperidin]-1′-yl}-N-[(3,5-difluoropyridin-2-yl)methyl]-1,3-thiazole-5-carboxamide], 7.39. In the case of `C[C@@H]1CCCN(C2CCN(c3noc(C(=O)NCc4ncc(F)cc4F)n3)CC2)C1` [Example 49, N-[(3,5-Difluoropyridin-2-yl)methyl]-3-[(3R)-3-methyl[1,4′-bipiperidin]-1′-yl]-1,2,4-oxadiazole-5-carboxamide], the pIC50 was 7.25.

In the case of `C[C@@H]1CCCN(C2CCN(c3ncc(C(=O)NCc4ncc(Cl)s4)s3)CC2)C1` [Example 56, N-[(5-Chloro-1,3-thiazol-2-yl)methyl]-2-[(3R)-3-methyl[1,4′-bipiperidin]-1′-yl]-1,3-thiazole-5-carboxamide], the pIC50 is 6.62.

Take `C[C@@H]1CCCN(C2CCN(c3ncc(C(=O)NCc4ccc(F)s4)s3)CC2)C1` [Example 57, N-[(5-Fluoro-2-thienyl)methyl]-2-[(3R)-3-methyl[1,4′-bipiperidin]-1′-yl]-1,3-thiazole-5-carboxamide]: the pIC50 is 6.08. With `C[C@@H]1CCCN(C2CCN(c3ncc(C(=O)NCc4ccncc4)s3)CC2)C1` [Example 58, 2-[(3R)-3-Methyl[1,4′-bipiperidin]-1′-yl]-N-(pyridin-4-ylmethyl)-1,3-thiazole-5-carboxamide], the pIC50 is 6.06. For the compound `CC1(C)CCCN(C2CCN(c3ncc(C(=O)NCc4ncc(F)cc4F)s3)CC2)C1` [Example 63, N-[(3,5-Difluoropyridin-2-yl)methyl]-2-(3,3-dimethyl[1,4′-bipiperidin]-1′-yl)-1,3-thiazole-5-carboxamide], the pIC50 is 6.24.

Turning to `O=C(NCc1ncc(F)cc1F)c1cnc(N2CCC(N3CCCC4(CC4)C3)CC2)s1` [Example 64, 2-[4-(5-Azaspiro[2.5]octan-5-yl)piperidin-1-yl]-N-[(3,5-difluoropyridin-2-yl)methyl]-1,3-thiazole-5-carboxamide], the pIC50 was 8.85. For `C[C@@H]1CCCN(C2CCCN(c3ncc(C(=O)NCc4ncc(F)cc4F)s3)CC2)C1` (stereo partly drawn) [Example 71, N-[(3,5-Difluoropyridin-2-yl)methyl]-2-{4-[(3R)-3-methylpiperidin-1-yl]azepan-1-yl}-1,3-thiazole-5-carboxamide], the pIC50 was 7.00.

Turning to `Cc1ccc(CNC(=O)c2cnc(N3CCC(N4CCC[C@@H](C)C4)CC3)s2)cn1` [Example 72, 2-[(3R)-3-methyl[1,4′-bipiperidin]-1′-yl]-N-[(6-methylpyridin-3-yl)methyl]-1,3-thiazole-5-carboxamide], the pIC50 is 6.74. Turning to `C[C@@H]1CCCN(C2CCN(c3ncc(C(=O)NCc4ccccc4)s3)CC2)C1` [Example 73, N-Benzyl-2-[(3R)-3-methyl[1,4′-bipiperidin]-1′-yl]-1,3-thiazole-5-carboxamide], the pIC50 is 6.66.

Turning to `CC(F)CCOCC1CCCN(C2CCN(c3ncc(C(=O)NCc4ncc(F)cc4F)s3)CC2)C1` (stereo not drawn) [Example 74, diamix-N-[(3,5-Difluoropyridin-2-yl)methyl]-2-[3-({[3-fluorobutyl]oxy}methyl)[1,4′-bipiperidin]-1′-yl]-1,3-thiazole-5-carboxamide], the pIC50 was 6.55. As to `C[C@@H]1CCCN(C2CCN(c3ncc(C(=O)NCc4ccncc4F)s3)CC2)C1` [Example 76, N-[(3-Fluoropyridin-4-yl)methyl]-2-[(3R)-3-methyl[1,4′-bipiperidin]-1′-yl]-1,3-thiazole-5-carboxamide], the pIC50 is 6.40. For `Cc1cc(C)c(CNC(=O)c2cnc(N3CCC(N4CCC[C@@H](C)C4)CC3)s2)cn1` [Example 78, N-[(4,6-Dimethylpyridin-3-yl)methyl]-2-[(3R)-3-methyl[1,4′-bipiperidin]-1′-yl]-1,3-thiazole-5-carboxamide], the pIC50 is 6.12. Next, `C[C@@H]1CCCN(C2CCN(c3ncc(C(=O)NCc4c(Cl)cnn4C)s3)CC2)C1` [Example 79, N-[(4-Chloro-1-methyl-1H-pyrazol-5-yl)methyl]-2-[(3R)-3-methyl[1,4′-bipiperidin]-1′-yl]-1,3-thiazole-5-carboxamide]: 7.30.

With `COc1cccc(CNC(=O)c2cnc(N3CCC(N4CCC[C@@H](C)C4)CC3)s2)c1` [Example 80], the pIC50 is 7.04. `C[C@@H]1CCCN(C2CCN(c3ncc(C(=O)NCc4cc(F)ccc4F)s3)CC2)C1` [Example 81]: the negative logarithm of the IC50 (pIC50) is 7.65. Turning to `C[C@@H]1CCCN(C2CCN(c3ncc(C(=O)NCc4cccc(O)c4)s3)CC2)C1` [Example 82], the pIC50 is 6.99. As to `CC(CNC(=O)c1cnc(N2CCC(N3CCC[C@@H](C)C3)CC2)s1)c1ccccc1` (stereo partly drawn) [Example 83], the pIC50 is 7.01. Take `C[C@@H]1CCCN(C2CCN(c3ncc(C(=O)NCc4ccc(F)cc4)s3)CC2)C1` [Example 84]: the pIC50 is 7.19. Turning to `C[C@@H]1CCCN(C2CCN(c3ncc(C(=O)NCc4cccnc4)s3)CC2)C1` [Example 85], the pIC50 is 6.22. Turning to `C[C@@H]1CCCN(C2CCN(c3ncc(C(=O)NCc4cccc(F)c4)s3)CC2)C1` [Example 86], the pIC50 is 7.55. Consider `C[C@@H]1CCCN(C2CCN(c3ncc(C(=O)NCc4ccccc4F)s3)CC2)C1` [Example 87], for which the pIC50 is 7.59. As for `C[C@@H]1CCCN(C2CCN(c3ncc(C(=O)Nc4ccc(F)c(C#N)c4)s3)CC2)C1` [Example 89], the pIC50 was 6.64.

Consider `C[C@@H]1CCCN(C2CCN(c3ncc(C(=O)N(C)Cc4cccnc4)s3)CC2)C1` [Example 90], for which the pIC50 was 7.01.

As for `C[C@@H]1CCCN(C2CCN(c3ncc(C(=O)N(C)Cc4ccncc4)s3)CC2)C1` [Example 91], the pIC50 is 6.55.

Take `C[C@@H]1CCCN(C2CCN(c3ncc(C(=O)N(C)Cc4ccccc4)s3)CC2)C1` [Example 92]: the pIC50 was 7.07.

`C[C@@H]1CCCN(C2CCN(c3ncc(C(=O)Nc4ccccc4C4CC4)s3)CC2)C1` [Example 93]: the pIC50 was 6.20.

For `C[C@@H]1CCCN(C2CCN(c3ncc(C(=O)NCc4cccc(Cl)c4)s3)CC2)C1` [Example 94], the pIC50 is 6.82. For the compound `Cc1ccc(C(C)NC(=O)c2cnc(N3CCC(N4CCC[C@@H](C)C4)CC3)s2)cc1` (stereo partly drawn) [Example 95], the pIC50 is 6.10.

With `C[C@@H]1CCCN(C2CCN(c3ncc(C(=O)Nc4cc(Cl)ccc4O)s3)CC2)C1` [Example 96], the negative-log IC50 (pIC50) was 6.00.

For `COc1ccc(F)cc1NC(=O)c1cnc(N2CCC(N3CCC[C@@H](C)C3)CC2)s1` [Example 97], the pIC50 is 5.89. In the case of `CCc1cc(NC(=O)c2cnc(N3CCC(N4CCC[C@@H](C)C4)CC3)s2)ccn1` [Example 98], the pIC50 is 5.80. `O=C(NCc1ncc(F)cc1F)c1cnc(N2CCC(N3CCC[C@@H](OCC4CC4)C3)CC2)s1` [Example 114, 2-[(3R)-3-(Cyclopropylmethoxy)[1,4′-bipiperidin]-1′-yl]-N-[(3,5-difluoropyridin-2-yl)methyl]-1,3-thiazole-5-carboxamide]: the pIC50 was 8.89. For `C[C@@H]1CCCN(C2CCN(c3nc(-c4ccccc4Cl)c(C(=O)NCc4ncc(F)cc4F)s3)CC2)C1` [Example 118, 4-(2-Chlorophenyl)-N-[(3,5-difluoropyridin-2-yl)methyl]-2-[(3R)-3-methyl[1,4′-bipiperidin]-1′-yl]-1,3-thiazole-5-carboxamide], the pIC50 is 8.11. On to `C[C@@H]1CCCN(C2CCN(c3nc(Cl)c(C(=O)NCc4ncc(F)cc4F)s3)CC2)C1` [Example 120, 4-Chloro-N-[(3,5-difluoropyridin-2-yl)methyl]-2-[(3R)-3-methyl[1,4′-bipiperidin]-1′-yl]-1,3-thiazole-5-carboxamide], for which the negative logarithm of the IC50 (pIC50) is 7.39. With `C[C@@H]1CCCN(C2CCN(c3nc(C4CC4)c(C(=O)NCc4ncc(F)cc4F)s3)CC2)C1` [Example 122, 4-Cyclopropyl-N-[(3,5-difluoropyridin-2-yl)methyl]-2-[(3R)-3-methyl[1,4′-bipiperidin]-1′-yl]-1,3-thiazole-5-carboxamide], the negative-log IC50 (pIC50) was 7.89.

Turning to `O=C(NCc1ncc(F)cc1F)c1cnc(N2CCC(N3CCCCC3)CC2)s1` [Example 128, 2-([1,4′-Bipiperidin]-1′-yl)-N-[(3,5-difluoropyridin-2-yl)methyl]-1,3-thiazole-5-carboxamide], the pIC50 is 6.26.
